For 21 compounds, T/C results are on record in PubChem BioAssay AID192 (DTP/NCI, 2004).

The test system of this assay is BDF1 mice, B16 melanoma ip, median survival T/C. The experiment in a line: NCI In Vivo Anticancer Drug Screen. Data for tumor model B16 Melanoma (intraperitoneal) in B6D2F1 (BDF1) mice. The settings on record: endpoint: median survival time, higher = longer survival. The method, then:
The antitumor activity of compounds was measured in mice bearing transplantable tumors. Survival or tumor size were measured and the results are expressed as the measurement made in the treated group (T) divided by the measurement made in the vehicle treated control group (C). The tumor model used in this assay is B16 Melanoma (intraperitoneal) in B6D2F1 (BDF1) mice

The mark [1] stands for this setting: dose: 3.13 mg/kg/injection, schedule: Q01DX009 (ip), vehicle: saline with Tween-80.
[2] abbreviates: dose: 6.25 mg/kg/injection, schedule: Q01DX009 (ip), vehicle: saline with Tween-80.
[3] abbreviates: dose: 12.5 mg/kg/injection, schedule: Q01DX009 (ip), vehicle: saline with Tween-80.
Where [4] appears, read: dose: 25.0 mg/kg/injection, schedule: Q01DX009 (ip), vehicle: saline with Tween-80.
[5] abbreviates: dose: 100.0 mg/kg/injection, schedule: Q04DX003 (ip), vehicle: saline with Tween-80.
Setting [6] is: dose: 100.0 mg/kg/injection, schedule: Q01DX009 (ip), vehicle: Klucel (hydroxypropylcellulose) (HPC).
The mark [7] stands for this setting: dose: 100.0 mg/kg/injection, schedule: Q04DX003 (ip), vehicle: Klucel (hydroxypropylcellulose) (HPC).
[8] abbreviates: dose: 200.0 mg/kg/injection, schedule: Q01DX009 (ip), vehicle: Klucel (hydroxypropylcellulose) (HPC).
Where [9] appears, read: dose: 200.0 mg/kg/injection, schedule: Q04DX003 (ip), vehicle: Klucel (hydroxypropylcellulose) (HPC).
Where [10] appears, read: dose: 400.0 mg/kg/injection, schedule: Q01DX009 (ip), vehicle: Klucel (hydroxypropylcellulose) (HPC).
Where [11] appears, read: dose: 400.0 mg/kg/injection, schedule: Q04DX003 (ip), vehicle: Klucel (hydroxypropylcellulose) (HPC).
[12] abbreviates: dose: 75.0 mg/kg/injection, schedule: Q01DX009 (ip), vehicle: Klucel (hydroxypropylcellulose) (HPC).
[13] abbreviates: dose: 50.0 mg/kg/injection, schedule: Q01DX009 (ip), vehicle: saline with Tween-80.
The mark [14] stands for this setting: dose: 50.0 mg/kg/injection, schedule: Q01DX009 (ip), vehicle: Klucel (hydroxypropylcellulose) (HPC).
Where [15] appears, read: dose: 25.0 mg/kg/injection, schedule: Q01DX009 (ip), vehicle: saline.
The mark [16] stands for this setting: dose: 50.0 mg/kg/injection, schedule: Q01DX009 (ip), vehicle: saline.
The mark [17] stands for this setting: dose: 100.0 mg/kg/injection, schedule: Q01DX009 (ip), vehicle: saline.
The mark [18] stands for this setting: dose: 12.5 mg/kg/injection, schedule: Q01DX009 (ip), vehicle: saline.

Each structure is given as a SMILES string. Values joined by “and” are separate entries in the source; they are usually repeats but may differ in a detail not shown here. Equal values may be shown once. Toxic doses and inconclusive results are not listed.

For `ClC1=C(Cl)C(Cl)=C(Cl)C1=Cc1ccccc1`, the T/C was 97 % of control (dose: 1.56 mg/kg/injection, schedule: Q01DX009 (ip), vehicle: saline with Tween-80); 92 % of control under setting [1]; 102 % of control under setting [2]; 111 % of control under setting [3]; 95 % of control under setting [4].

For `N#CC(Br)C(N)=O` (stereo not given), the T/C reads like this: (dose: 2.5 mg/kg/injection, schedule: Q01DX009 (ip), vehicle: saline) 93 % of control; (dose: 5.0 mg/kg/injection, schedule: Q01DX009 (ip), vehicle: saline) 94 % of control.

Take `Cc1c(Cl)cc(Cl)c(N)c1Cl`: the T/C under setting [5] is 86 % of control; the T/C (dose: 200.0 mg/kg/injection, schedule: Q04DX003 (ip), vehicle: saline with Tween-80) was 93 % of control; the T/C (dose: 400.0 mg/kg/injection, schedule: Q04DX003 (ip), vehicle: saline with Tween-80) was 90 % of control.

Take `Cc1cccc(NC(=O)NC(C)C)c1C`: the T/C under setting [6] was 100 % of control; the T/C under setting [7] is 103 % of control; the T/C under setting [8] is 96 % of control; the T/C under setting [9] was 107 % of control; the T/C under setting [10] is 93 % of control; the T/C under setting [11] is 100 % of control.

For `CC1(c2ccc(N(CCCl)CCCl)cc2)NC(=O)NC1=O` (stereo not given), the T/C by setting is: (dose: 2.5 mg/kg/injection, schedule: Q01DX009 (ip), vehicle: Klucel (hydroxypropylcellulose) (HPC)) 104 % of control; (dose: 5.0 mg/kg/injection, schedule: Q01DX009 (ip), vehicle: Klucel (hydroxypropylcellulose) (HPC)) 94 % of control and 111 % of control; (dose: 18.75 mg/kg/injection, schedule: Q01DX009 (ip), vehicle: Klucel (hydroxypropylcellulose) (HPC)) 119 % of control; (dose: 20.0 mg/kg/injection, schedule: Q01DX009 (ip), vehicle: Klucel (hydroxypropylcellulose) (HPC)) 120 % of control and 123 % of control; (dose: 37.5 mg/kg/injection, schedule: Q01DX009 (ip), vehicle: Klucel (hydroxypropylcellulose) (HPC)) 102 % of control; (dose: 40.0 mg/kg/injection, schedule: Q01DX009 (ip), vehicle: Klucel (hydroxypropylcellulose) (HPC)) 157 % of control and 161 % of control. The T/C under setting [12] is 90 % of control.

As to `CCC/C=C(/CC(=O)O)C(=O)O`, the T/C (dose: 75.0 mg/kg/injection, schedule: Q04DX003 (ip), vehicle: saline with Tween-80) was 100 % of control.

Take `COc1cccc(C)c1[N+](=O)[O-]`: the T/C reads like this: (dose: 75.0 mg/kg/injection, schedule: Q04DX003 (ip), vehicle: Klucel (hydroxypropylcellulose) (HPC)) 92 % of control; (dose: 150.0 mg/kg/injection, schedule: Q04DX003 (ip), vehicle: Klucel (hydroxypropylcellulose) (HPC)) 109 % of control; (dose: 300.0 mg/kg/injection, schedule: Q04DX003 (ip), vehicle: Klucel (hydroxypropylcellulose) (HPC)) 90 % of control.

On to `CCN(CC)CCNc1ccc(CO)c2sc3ccccc3c(=O)c12`, for which the T/C is, setting by setting: (dose: 0.25 mg/kg/injection, schedule: Q01DX009 (ip), vehicle: saline) 100 % of control; (dose: 0.5 mg/kg/injection, schedule: Q01DX009 (ip), vehicle: saline) 94 % of control; (dose: 1.0 mg/kg/injection, schedule: Q01DX009 (ip), vehicle: saline) 89 % of control; (dose: 2.0 mg/kg/injection, schedule: Q01DX009 (ip), vehicle: saline) 100 % of control; (dose: 2.4 mg/kg/injection, schedule: Q01DX009 (ip), vehicle: saline with Tween-80) 89 % of control; (dose: 4.8 mg/kg/injection, schedule: Q01DX009 (ip), vehicle: saline with Tween-80) 97 % of control. Besides, the T/C (dose: 9.5 mg/kg/injection, schedule: Q01DX009 (ip), vehicle: saline with Tween-80) was 105 % of control; the T/C (dose: 19.0 mg/kg/injection, schedule: Q01DX009 (ip), vehicle: saline with Tween-80) is 97 % of control; the T/C (dose: 38.0 mg/kg/injection, schedule: Q01DX009 (ip), vehicle: saline with Tween-80) was 110 % of control.

Regarding `CC12NC(=O)NC1(C)NC(=O)N2` (stereo not given), under setting [5], the T/C was 100 % of control.

Take `CCc1ccccc1NC(=O)NC(C)C`: the T/C reads like this: under setting [7], 100 % of control; under setting [9], 110 % of control; under setting [11], 100 % of control.

For `Cc1ccc(NC(=O)COc2ccc(Cl)cc2)cc1Cl`, the T/C is, setting by setting: under setting [1], 101 % of control; under setting [2], 106 % of control; under setting [3], 93 % of control and 101 % of control; under setting [4], 87 % of control; under setting [13], 96 % of control.

For the compound `O=C1CC(c2ccc(O)cc2)CC(=O)C1C(C1CC=CCC1)N(CCCl)CCCl` (stereo not given), the T/C runs as follows: (dose: 25.0 mg/kg/injection, schedule: Q01DX009 (ip), vehicle: Klucel (hydroxypropylcellulose) (HPC)) 88 % of control; under setting [14], 95 % of control; under setting [6], 90 % of control; under setting [8], 92 % of control; under setting [10], 97 % of control.

Turning to `COc1ccc2c(c1)C(=O)CCN2`, the T/C was 114 % of control under setting [7], 107 % of control under setting [9] and 99 % of control under setting [11].

On to `CCN(C(=O)Nc1ccccc1)c1ccccc1C`, for which the T/C is 100 % of control under setting [2], 88 % of control under setting [3] and 94 % of control under setting [4].

Take `Cc1c(Cl)cccc1NC(=O)c1ccc(Cl)cc1`: the T/C was 94 % of control under setting [12] and 90 % of control (dose: 150.0 mg/kg/injection, schedule: Q01DX009 (ip), vehicle: Klucel (hydroxypropylcellulose) (HPC)).

With `O=C1CC2(C(=O)N1CN1CCCCC1)c1ccccc1-c1ccccc12`, the T/C reads like this: (dose: 12.5 mg/kg/injection, schedule: Q01DX009 (ip), vehicle: Klucel (hydroxypropylcellulose) (HPC)) 114 % of control; under setting [14], 112 % of control; under setting [6], 112 % of control; under setting [8], 112 % of control.

`C/C=C/C=C\C1OC(O)([C@H](CC)C(=O)NC/C=C/C=C(\C)[C@H](OC)C(C)C2OC(\C=C/C=C/C=C(\C)C(=O)c3c(O)ccn(C)c3=O)[C@H](O)[C@@H]2O)C(O)C(O)C1(C)C` (stereo not given in full): the T/C is 102 % of control under setting [15]; 89 % of control under setting [16]; 91 % of control under setting [17]; 97 % of control (dose: 200.0 mg/kg/injection, schedule: Q01DX009 (ip), vehicle: saline).

On to `O=C1C=CN(C2OC(CO)C(O)C2O)C(=O)C1` (stereo not given), for which the T/C reads like this: under setting [18], 104 % of control; under setting [15], 104 % of control; (dose: 50.0 mg/kg/injection, schedule: Q01DX009 (ip), vehicle: saline sonified) 100 % of control; under setting [16], 119 % of control; (dose: 100.0 mg/kg/injection, schedule: Q01DX009 (ip), vehicle: saline sonified) 86 % of control; under setting [17], 118 % of control. Moreover, the T/C (dose: 200.0 mg/kg/injection, schedule: Q01DX009 (ip), vehicle: saline sonified) is 89 % of control.

For `O=C1/C(=N/O)CCc2ccccc21`, the T/C is 91 % of control under setting [14] and 100 % of control under setting [6].

With `CCC1(CC)COC(=O)NC1=O`, the T/C reads like this: (dose: 1.56 mg/kg/injection, schedule: Q01DX009 (ip), vehicle: saline) 105 % of control; (dose: 3.12 mg/kg/injection, schedule: Q01DX009 (ip), vehicle: saline) 97 % of control; (dose: 6.25 mg/kg/injection, schedule: Q01DX009 (ip), vehicle: saline) 105 % of control; under setting [18], 107 % of control.

Take `CN=S(=O)(OCCCCCOS(=O)(=NC)c1ccc(C)cc1)c1ccc(C)cc1` (stereo not given): the T/C reads like this: under setting [2], 101 % of control; under setting [3], 103 % of control; under setting [4], 99 % of control; under setting [13], 102 % of control; (dose: 100.0 mg/kg/injection, schedule: Q01DX009 (ip), vehicle: saline with Tween-80) 101 % of control; (dose: 200.0 mg/kg/injection, schedule: Q01DX009 (ip), vehicle: saline with Tween-80) 106 % of control.
